Laboratory results as given in patent US20060010514A1, “Polynucleotides encoding mature AHASL proteins for creating imidazolinone-tolerant plants” (BASF Plant Science GmbH, priority 2004, published 2006).

Assays:
[1] = test system: wheat lines with S653(At)N mutation in AHASL1D; assay: herbicide spray assay, greenhouse-grown mutagenized wheat lines; format: in vivo, Triticum aestivum; details: 0-9 rating scale (0=no injury; 9=highest injury), after spraying with imazamox
Procedure: (§1) The most common mutation observed in wheat results in a Ser to Asn substitution at the position equivalent to Ser653 in Arabidopsis (termed S653(At)N). Typically, 24 individuals from each mutagenized line were scored on a 0-9 rating scale (0=no injury; 9=highest injury) after spraying with a rate of imazamox sufficient for detecting differences in the greenhouse-grown plants (FIG. 4). For each line, the specific gene mutated was determined. A clear correlation was found between the ratings from herbicide spray assays and the specific homoeolog that was mutated at this position.

[2] = test system: wheat lines with S653(At)N mutation in AHASL1A; assay: as above; format: in vivo, Triticum aestivum; details: 0-9 rating scale (0=no injury; 9=highest injury); after spraying with imazamox; mutation in 1A
Procedure: as §1

[3] = test system: wheat lines with S653(At)N mutation in AHASL1B; assay: as above; format: in vivo, Triticum aestivum; details: 0-9 rating scale (0=no injury; 9=highest injury); after spraying with imazamox; mutation in 1B
Procedure: as §1

[4] = test system: AHAS of S653(At)N mutant in AHASL1B; assay: AHAS assay on extracts of S653(At)N mutants; format: biochemical, Triticum aestivum
From the text: (§2) The deletions, insertions, and substitutions of the protein sequences encompassed herein are not expected to produce radical changes in the characteristics of the protein. However, when it is difficult to predict the exact effect of the substitution, deletion, or insertion in advance of doing so, one skilled in the art will appreciate that the effect will be evaluated by routine screening assays. That is, AHASL function can be evaluated by AHAS enzyme activity assays in the presence and absence of an imidazolinone herbicide. See, for example, Singh et al. ((1988) Anal. Biochem. 171:173-179), herein incorporated by reference.
(§3) To obtain an understanding of the effect of each mutation on the level of enzyme sensitivity to the herbicides, AHAS assays were performed on S653(At)N mutants in all three genes using individuals from several backgrounds (representative data in FIG. 6A). […] Also, a double mutant between 1A and 1D retained 63% of AHAS activity (Pozniak et al. submitted). […] In durum wheat (T. turgidum) each homeolog appears to contribute equally to the AHAS pool (FIG. 6B).

[5] = test system: AHAS of S653(At)N mutant in AHASL1D; assay: AHAS assay on extracts of S653(At)N mutants; format: biochemical, Triticum aestivum
From the text: as §2, §3

[6] = test system: AHAS of double mutant between 1A and 1D; details: herbicide not restated, follows the 100 μM imazethapyr sentence; cited from earlier work
[7] = test system: AHAS of S653(At)N mutant in AHASL1A; assay: AHAS assay on extracts of S653(At)N mutants; format: biochemical, Triticum aestivum; details: 100 μM imazapyr, several backgrounds
From the text: as §2, §3

Structure (SMILES): COCc1cnc(C2=NC(C)(C(C)C)C(=O)N2)c(C(=O)O)c1 (stereo not drawn) [imazamox]
- median injury [1]: 4.0
- median injury [2]: 6.4
- median injury [3]: 5.4

Structure (SMILES): CCc1cnc(C2=NC(C)(C(C)C)C(=O)N2)c(C(=O)O)c1 (stereo not drawn) [imazethapyr]
- AHAS activity in the presence of herbicide ([4]; 100 μM imazethapyr, AHAS1B mutant extract, CDC Teal background): 30%
- AHAS activity in the presence of herbicide ([5]; 100 μM imazethapyr, AHAS1D mutant extract, CDC Teal background): 40%
- AHAS activity retained [6]: 63%

Structure (SMILES): CC(C)C1(C)N=C(c2ncccc2C(=O)O)NC1=O (stereo not drawn) [imazapyr]
- AHAS activity in the presence of herbicide ([4]; 100 μM imazapyr, AHASL1B S653(At)N mutant, several backgrounds): 25%
- AHAS activity in the presence of herbicide [7]: 33%
- AHAS activity in the presence of herbicide (level of insensitivity) ([5]; 100 μM imazapyr, AHASL1D S653(At)N mutant, several backgrounds): 38%
